Entries after “also recorded” stand apart in the source; their conditions may differ. Where two headings read alike, the source gives them in different places. Non-standard residues stand in square brackets, D forms with d. Residues, ends and D or L forms follow the SMILES beside them. 1Nal = N[C@@H](Cc1cccc2ccccc12)C(=O)O; NMeF = CN[C@@H](Cc1ccccc1)C(=O)O; Cha = N[C@@H](CC1CCCCC1)C(=O)O; dCha = N[C@H](CC1CCCCC1)C(=O)O
T1: C5a receptor (Homo sapiens, UniProt P21730)
T1 construct: followed by a 20 μL aliquot of neutrophil membrane; endogenous in cells
T1 sequence (P21730 1-350): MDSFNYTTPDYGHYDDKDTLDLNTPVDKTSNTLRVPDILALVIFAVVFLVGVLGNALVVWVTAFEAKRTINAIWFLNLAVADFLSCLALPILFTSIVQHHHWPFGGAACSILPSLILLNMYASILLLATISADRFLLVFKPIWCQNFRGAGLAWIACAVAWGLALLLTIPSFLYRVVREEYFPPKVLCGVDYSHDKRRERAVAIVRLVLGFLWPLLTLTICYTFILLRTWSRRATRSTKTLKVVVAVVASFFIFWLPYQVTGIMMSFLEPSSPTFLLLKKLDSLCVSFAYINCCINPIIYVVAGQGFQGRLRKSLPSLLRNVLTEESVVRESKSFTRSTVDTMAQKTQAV

B1: C5a: 74 amino acid protein derived from the fifth component of serum complement during complement activation (protein, UniProt P01031 678-751, looked up)
C5a anaphylatoxin: TLQKKIEEIAAKYKHSVVKKCCYDGACVNNDETCEQRAARISLGPRCIKAFTECCVVASQLRANISHKDMQLGR
modifications: C5a anaphylatoxin

Key:
C5a receptor = target: T1, C5a receptor; test: Competition binding against 125I-labeled intact C5a on human neutrophil (PMN) membranes
Description: The affinity of these peptides is shown, for example, by radiolabeling intact C5a, and using the unlabeled peptide to compete the labeled C5a from C5a receptor binding sites on cellular membranes. Preparations of polymorphonuclear leukocytes (PMN's) are known to express the C5a receptor, (inhibition of the chemotactic response to C5a of this type of cell is one desirable utility for compounds identified by the instant assay). One method for preparing these membranes is described by Rollins, T. E. et al., [J. Biol. Chem. 264:520-526 (1988); see also U.S. Pat. No. 5,177,190, herein incorporated by reference as a method for isolating and purifying C5a receptor]. Briefly, this involves isolating PMN's in large quantity, disrupting these cells and obtaining the membrane fraction by centrifugation. Protein assay of the membrane preparation allows for standardization of the amount of protein added in any set of membrane binding experiments.
In FIG. 1, unlabeled C013 is used to compete with ^125 I-labeled C5a. […] In FIG. 2, the C013 is ^125 I labeled. Unlabeled C5a and unlabeled C013 are each used to compete the labeled C013 from C5a binding sites on the membranes. […] In FIG. 3a, ^125 I-C5a is competed from its binding site by unlabeled C064 and unlabeled, natural C5a (as opposed to recombinant C5a, which, however, may also obviously may be used for these purposes). […] In FIG. 3b, the inverse experiment is shown, wherein ^125 I-C064 is displaced by unlabeled C064 and unlabeled nC5a.
Hexapeptides within this class differing only at position X have similar affinities for the C5a receptor. As measured in competition binding experiments against ^125 I-C5a on human neutrophil membranes their IC50 's varied by only a factor of 3, from 25 to 80 nM (Table II):
^2 Binding experiments were carried out with human neutrophil
Binding is initiated by an addition of 20 μL of PMN membrane (typically 0.5 μg of protein) to each tube. After incubation for 90 min. at room temperature 2 ml of 0.05 M HEPES, pH 7.2, containing 0.5% BSA are added to the tube, the contents vortexed and filtered over a Whatman GF/C filter which has been soaked in 0.3% polyethylenimine. An additional 2 ml of buffer are added to the tube and used to wash the filter. All of the test samples are dissolved in DMSO, another water miscible organic solvent, or in an aqueous solvent. Non-specific background was determined by inclusion of a 100-fold excess of unlabeled C5a.
The percent inhibition is calculated according to the following formula: [formula]
Iodination of C5a was carded out with the use of chloramine T. (Rollins, T.E., and Springer, M.S. (1985) J. Biol. Chem. 260, 7157-7160). […] Concentrations of C5a were determined by amino acid analysis and by RIA (Amersham Corp.). Membranes were prepared from human PMN as described by Rollins, T.E., Sciliano, S and Springer, M.S., J. Biol Chem 264 520-526 (1988).

[1] = system: human neutrophil membranes; test: GTPase activity in neutrophil membranes (G protein activation); format: biochemical
Description: (§1) FIG. 6A and 6B. Chemotaxis and G protein activation elicited by the hexapeptides.
Since C5a evokes such a plethora of biological responses, it is difficult to ascertain a molecule's overall functional properties from any subset of responses. […] An alternative to investigating all of the responses generated by the C5a receptor, is to determine a molecule's ability to stimulate G protein activation. Such a measurement should give an integrated view of a molecule's agonist properties. As a measure of G protein activation we have investigated the peptides' abilities to stimulate GTPase activity in human neutrophil membranes:
The method of Kupper et al. (Kupper, R. W., Dewald, B., Jakobs, K. H., Baggiolini, M. and Gierschik, P. (1992) Biochem. J. 282, 429-434) was adapted for use in microtiter plates. Neutrophil membranes were suspended in 50 mM triethanolamine-HCl, 5 mM MES, pH 7.3, containing 1 mM EDTA, 5 mM MgCl2, 143 mM NaCl, 0.16 % BSA, 1 mM ouabain, 1 mM AMP-PNP, 0.5 mM ATP, 2.5 U/mL creatine phosphokinase,. 10 mM creatine phosphate, 0.1 mM PMSF and 10 ng/mL each of leupeptin, aprotinin and chymostatin. 50 μL of membranes containing 1-5 μg protein were added to 50 μL of the same buffer containing the test agent and 0.25 μM [γ-^32 P]-GTP (2,000 cpm/pmol) in the wells of a U-shaped microtiter plate. After incubation for 15-30 rain at 29° C., 100 μL of a 10% (w/v) charcoal suspension in 100 mM H3 PO4 was added and plates were centrifuged at 2000 rpm for 5 min. 100 μL of the supernatant was transferred to an Optiplate microtiter plate and 100 μL of Microscint-40 scintillation cocktail was added. Plates were counted in a Packard TopCount microtiter plate counter.

human neutrophils = test: Chemotaxis, Boyden Chamber assay; format: cell-based; conditions: FIG. 6A
Protocol: as §1
This assay is a modification of the procedure described by Sims et. al. (Sims, T. J., Geissler, F. T. and Page, R. C. (1985) J. lmmunol. Meth. 78, 279-291 ). Chemotaxis was assayed in a 48 well Neuro Probe chamber (Neuro Probe, Bethesda, MD) using ^51 Cr-labelled cells. Varying concentrations of C5a or peptide were placed in the lower chamber which was successively covered by a 100 μm nitrocellulose membrane (Neuro Probe, Bethesda, Md.) and two 3 μm polycarbonate filters. After preforming a gradient for 30 minutes at 37° C., 2×10^5 labelled cells were added to the upper chamber and allowed to migrate at 37° C. for one hour. The upper two polycarbonate filters were then discarded and the formed wells cut from the nitrocellulose membrane. The radioactivity present in these filters is a measure of the number of cells that migrated through both polycarbonate filters.
A plot of the initial concentration of agent placed in the lower chamber against the number of cells which migrate (measured by counting the ^51 Cr-labelled cells) is shown in FIG. 6A. For C5a, maximal response occurs at 10 nM. Since the cells migrate in response to the concentration gradient established across the filters, the actual stimulatory concentration is much lower than the nominal value plotted on the abcissa in FIG. 6A.

[2] = Table II, human neutrophil membranes, competition against 125I-C5a, read-out: Binding IC50
[3] = nominal initial concentration in lower chamber

Row | Molecule | Ki (C5a receptor) [nM] | stimulation of GTPase activity / G protein activation in words ([1]; FIG. 6B) | IC50 (C5a receptor; [2]) [nM] | chemotactic response in words (human neutrophils) | concentration of maximal chemotactic response (maximal migration) (human neutrophils; [3]) | EC50 ([1]; FIG. 6B, read-out: ED50 for stimulation of GTPase activity) [nM] | binding affinity in words (C5a receptor) | GTPase activity ([1]; 3 nM C5a, absence of C089, raised from 46) [pmol/min/mg protein] | IC50 (C5a receptor; labeled ligand 125I-C5a, read-out: IC50 exhibited by the unlabeled ligand) [nM] | concentration of maximal chemotactic response (human neutrophils; [3]) [nM]
1 | CC(C)C[C@H](NC(=O)[C@H](CC1CCCCC1)NC(=O)[C@H](CC1CCCCC1)NC(=O)[C@H](C)NC(=O)[C@H](CCCCN)NC(=O)[C@H](Cc1ccccc1)NC(=O)[C@@H](N)Cc1ccc(O)cc1)C(=O)N[C@H](Cc1ccccc1)C(=O)N[C@@H](CCCNC(=N)N)C(=O)O [C009, Tyr Phe Lys Ala Cha Cha Leu dPhe Arg] (H-YFKA[Cha][Cha]L[dF]R-OH) | 8 | – | – | – | – | – | – | – | – | –
2 | CN[C@@H](Cc1ccccc1)C(=O)N[C@@H](CCCCN)C(=O)N1CCC[C@H]1C(=O)N[C@H](CC1CCCCC1)C(=O)N[C@@H](Cc1ccccc1)C(=O)N[C@H](CCCNC(=N)N)C(=O)O [C026, NMeF--K--P-dCha-F-dR] (H-[NMeF]KP[dCha]F[dR]-OH) | – | full agonist in chemotaxis or C5a receptor-linked G-protein activation; also recorded: somewhat reduced ability to stimulate the GTP hydrolysis | 50 | full agonist in chemotaxis; also recorded: strong chemoattractants; also recorded: as chemotactic as C028 | 1 µM | – | – | – | – | –
3 | CN[C@@H](Cc1ccccc1)C(=O)N[C@@H](CCCCN)C(=O)N1CCC[C@H]1C(=O)N[C@H](CC1CCCCC1)C(=O)N[C@@H](CC1CCCCC1)C(=O)N[C@H](CCCNC(=N)N)C(=O)O [C028, MePhe Lys Pro dCha Cha dArg] (H-[NMeF]KP[dCha][Cha][dR]-OH) | – | stimulates as much GTPase activity as does C5a | 25 | strong chemoattractants | 1 µM | 100 | – | – | – | –
4 | CN[C@@H](Cc1ccccc1)C(=O)N[C@@H](CCCCN)C(=O)N1CCC[C@H]1C(=O)N[C@H](CC1CCCCC1)C(=O)N[C@@H](Cc1cccc2ccccc12)C(=O)N[C@H](CCCNC(=N)N)C(=O)O [C061] (H-[NMeF]KP[dCha][1Nal][dR]-OH) | – | significantly lower GTPase activity | 80 | good chemotactic activity; also recorded: elicits as great an accumulation of cells as either C026, or C028, or for that matter, C5a | about 100 μM | – | – | – | – | –
5 | CN[C@@H](Cc1ccccc1)C(=O)N[C@@H](CCCCN)C(=O)N1CCC[C@H]1C(=O)N[C@H](CC1CCCCC1)C(=O)N[C@@H](Cc1c[nH]c2ccccc12)C(=O)N[C@H](CCCNC(=N)N)C(=O)O [C089] | – | does not stimulate G protein activation; also recorded: fails entirely to stimulate GTP hydrolysis | – | little or no ability to stimulate a chemotactic response | – | – | excellent ability to inhibit C5a binding | – | – | –
6 | B1 | – | – | 0.03 | – | – | – | – | 64 | 0.066 | 10

— patent US5614370A, “Assay to identify human C5a antagonists and agonists” (Merck & Co., Inc., priority 1994, dated 1997)
